What is called IC50 is the midpoint of a concentration-inhibition curve. Lower therefore signals inhibition by little substance.

Drawing on ChEMBL document CHEMBL1134862, “Rational design of 4,5-disubstituted-5,7-dihydro-pyrrolo[2,3-d]pyrimidin-6-ones as a novel class of inhibitors of epidermal growth factor receptor (EGF-R) and Her2(p185(erbB)) tyrosine kinases” (Bioorg Med Chem Lett, 2002), this text covers IC50 for twelve molecules.

Molecules are shown by their SMILES. Where only a bound is given, the exact number is not on record here.

Chain of Receptor tyrosine-protein kinase erbB-2 (P04626 whole entry): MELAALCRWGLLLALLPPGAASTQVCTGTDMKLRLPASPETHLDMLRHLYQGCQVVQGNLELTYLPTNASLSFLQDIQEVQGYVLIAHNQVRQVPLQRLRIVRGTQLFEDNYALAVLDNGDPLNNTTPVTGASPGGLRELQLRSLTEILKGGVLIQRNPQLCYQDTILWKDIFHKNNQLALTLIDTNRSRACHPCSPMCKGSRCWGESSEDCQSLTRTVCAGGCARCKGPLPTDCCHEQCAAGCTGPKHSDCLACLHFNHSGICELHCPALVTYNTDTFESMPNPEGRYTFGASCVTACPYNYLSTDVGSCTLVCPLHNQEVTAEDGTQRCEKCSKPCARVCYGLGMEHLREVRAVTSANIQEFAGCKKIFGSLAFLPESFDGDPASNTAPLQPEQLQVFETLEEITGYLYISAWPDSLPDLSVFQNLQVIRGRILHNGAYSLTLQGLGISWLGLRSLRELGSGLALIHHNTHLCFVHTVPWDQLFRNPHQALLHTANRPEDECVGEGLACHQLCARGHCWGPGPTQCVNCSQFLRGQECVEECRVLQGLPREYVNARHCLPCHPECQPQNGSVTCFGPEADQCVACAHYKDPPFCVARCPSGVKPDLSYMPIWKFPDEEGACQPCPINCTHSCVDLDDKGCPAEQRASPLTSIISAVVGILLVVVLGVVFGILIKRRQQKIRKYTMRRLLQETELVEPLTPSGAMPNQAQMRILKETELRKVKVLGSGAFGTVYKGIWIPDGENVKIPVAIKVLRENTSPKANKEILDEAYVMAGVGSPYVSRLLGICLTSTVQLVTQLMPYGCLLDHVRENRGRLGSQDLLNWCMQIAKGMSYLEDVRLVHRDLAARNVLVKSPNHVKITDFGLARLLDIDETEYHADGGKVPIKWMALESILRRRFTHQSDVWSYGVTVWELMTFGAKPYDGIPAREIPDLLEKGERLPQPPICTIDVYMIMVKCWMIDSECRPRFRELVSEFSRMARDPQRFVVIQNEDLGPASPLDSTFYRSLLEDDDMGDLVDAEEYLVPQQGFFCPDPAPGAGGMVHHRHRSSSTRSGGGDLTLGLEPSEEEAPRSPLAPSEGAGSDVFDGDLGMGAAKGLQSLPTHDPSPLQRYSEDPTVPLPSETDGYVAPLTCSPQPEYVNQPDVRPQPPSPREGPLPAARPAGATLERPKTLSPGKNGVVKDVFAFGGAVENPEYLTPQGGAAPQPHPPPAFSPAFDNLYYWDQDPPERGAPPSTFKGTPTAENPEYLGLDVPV
T1 sequence (P00533 whole entry): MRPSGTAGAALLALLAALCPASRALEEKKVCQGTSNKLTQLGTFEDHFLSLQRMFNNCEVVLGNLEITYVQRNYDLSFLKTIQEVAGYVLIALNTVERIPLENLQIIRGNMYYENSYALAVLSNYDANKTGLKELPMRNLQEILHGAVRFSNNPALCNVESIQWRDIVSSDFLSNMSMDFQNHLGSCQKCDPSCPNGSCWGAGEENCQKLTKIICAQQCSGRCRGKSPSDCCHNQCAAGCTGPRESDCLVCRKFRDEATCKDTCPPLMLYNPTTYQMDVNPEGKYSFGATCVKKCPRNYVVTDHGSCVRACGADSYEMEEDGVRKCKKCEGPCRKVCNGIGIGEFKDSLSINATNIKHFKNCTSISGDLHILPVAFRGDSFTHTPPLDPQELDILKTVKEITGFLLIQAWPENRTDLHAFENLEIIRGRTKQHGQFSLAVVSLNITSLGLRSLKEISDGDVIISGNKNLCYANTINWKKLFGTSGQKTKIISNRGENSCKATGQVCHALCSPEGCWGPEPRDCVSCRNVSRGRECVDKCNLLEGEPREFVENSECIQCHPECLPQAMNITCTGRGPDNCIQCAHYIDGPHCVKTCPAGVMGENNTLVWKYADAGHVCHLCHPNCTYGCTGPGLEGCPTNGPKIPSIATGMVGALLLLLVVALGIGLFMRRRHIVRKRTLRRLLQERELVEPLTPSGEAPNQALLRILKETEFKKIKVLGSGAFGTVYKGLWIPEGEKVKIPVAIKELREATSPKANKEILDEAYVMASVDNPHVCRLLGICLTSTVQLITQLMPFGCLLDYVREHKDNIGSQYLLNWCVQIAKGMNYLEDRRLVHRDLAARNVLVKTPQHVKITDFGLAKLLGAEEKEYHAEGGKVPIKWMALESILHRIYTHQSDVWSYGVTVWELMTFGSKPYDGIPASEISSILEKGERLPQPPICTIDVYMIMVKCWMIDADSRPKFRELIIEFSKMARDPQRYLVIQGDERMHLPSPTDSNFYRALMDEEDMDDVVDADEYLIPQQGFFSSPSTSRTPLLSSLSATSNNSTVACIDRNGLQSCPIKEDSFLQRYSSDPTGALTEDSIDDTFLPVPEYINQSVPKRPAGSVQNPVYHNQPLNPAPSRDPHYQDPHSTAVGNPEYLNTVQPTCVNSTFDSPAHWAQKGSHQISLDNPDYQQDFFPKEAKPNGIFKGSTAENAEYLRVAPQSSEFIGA

The first test deals with Vascular endothelial growth factor receptor 2 (Homo sapiens, UniProt P35968). The experiment in a line: Inhibition of tyrosine phosphorylation in cells expressing human VEGFR2 (Flk-1/KDR) kinase.
Chain of Vascular endothelial growth factor receptor 2 (P35968 whole entry): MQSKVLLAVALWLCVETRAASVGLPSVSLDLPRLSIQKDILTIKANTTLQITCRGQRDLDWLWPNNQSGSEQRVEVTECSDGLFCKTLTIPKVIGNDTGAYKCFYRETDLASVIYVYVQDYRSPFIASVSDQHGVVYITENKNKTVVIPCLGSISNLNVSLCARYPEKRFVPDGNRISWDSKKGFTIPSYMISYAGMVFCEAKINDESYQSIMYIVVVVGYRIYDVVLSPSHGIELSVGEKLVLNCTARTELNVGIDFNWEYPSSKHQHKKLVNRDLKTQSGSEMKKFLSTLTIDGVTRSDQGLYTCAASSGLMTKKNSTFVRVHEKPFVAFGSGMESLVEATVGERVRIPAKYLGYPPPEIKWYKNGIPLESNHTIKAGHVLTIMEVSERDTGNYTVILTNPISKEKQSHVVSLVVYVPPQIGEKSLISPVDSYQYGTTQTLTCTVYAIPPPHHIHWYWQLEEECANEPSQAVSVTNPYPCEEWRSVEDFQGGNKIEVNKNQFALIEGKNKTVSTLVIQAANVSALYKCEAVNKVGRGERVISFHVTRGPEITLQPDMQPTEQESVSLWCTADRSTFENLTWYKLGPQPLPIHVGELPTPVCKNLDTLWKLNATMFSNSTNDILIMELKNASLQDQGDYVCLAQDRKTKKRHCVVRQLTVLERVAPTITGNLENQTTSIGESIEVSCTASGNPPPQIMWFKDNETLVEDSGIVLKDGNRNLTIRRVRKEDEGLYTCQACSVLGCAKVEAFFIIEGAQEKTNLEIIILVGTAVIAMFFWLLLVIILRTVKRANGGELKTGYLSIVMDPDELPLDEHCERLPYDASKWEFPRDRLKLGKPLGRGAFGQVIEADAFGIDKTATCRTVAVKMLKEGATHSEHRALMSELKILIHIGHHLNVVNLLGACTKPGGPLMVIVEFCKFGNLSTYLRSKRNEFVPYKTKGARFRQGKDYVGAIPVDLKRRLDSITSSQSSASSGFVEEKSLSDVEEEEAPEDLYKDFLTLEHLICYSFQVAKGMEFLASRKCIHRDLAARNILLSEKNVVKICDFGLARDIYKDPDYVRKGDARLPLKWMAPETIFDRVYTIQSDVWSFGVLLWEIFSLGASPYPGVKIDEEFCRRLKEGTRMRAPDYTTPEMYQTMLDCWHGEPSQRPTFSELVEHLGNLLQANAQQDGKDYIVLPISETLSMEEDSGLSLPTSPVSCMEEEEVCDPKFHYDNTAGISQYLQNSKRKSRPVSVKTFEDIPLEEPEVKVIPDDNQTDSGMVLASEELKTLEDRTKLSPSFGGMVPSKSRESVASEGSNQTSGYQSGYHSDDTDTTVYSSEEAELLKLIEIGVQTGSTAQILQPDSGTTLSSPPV
In turn, `CCN1CCN(C(=O)c2cc(C)c(/C=C3\C(=O)Nc4ncnc(Nc5ccc(F)c(Cl)c5)c43)[nH]2)CC1` yielded a half-inhibitory concentration (IC50) greater than 20000 nM.

The molecule `CCN(CC)CCNC(=O)c1cc(C)c(/C=C2\C(=O)Nc3ncnc(Nc4ccc(F)c(Cl)c4)c32)[nH]1` came in with an IC50 of 300 nM.

On to `Cc1cc(CCC(=O)O)[nH]c1/C=C1\C(=O)Nc2ncnc(Nc3ccc(F)c(Cl)c3)c21`, for which the IC50 is greater than 20000 nM.

`Cc1cc(C)c(/C=C2\C(=O)Nc3ncnc(Nc4ccc(F)c(Cl)c4)c32)[nH]1` showed a 50% inhibitory concentration (IC50) of 16500 nM.

For the molecule `Cc1cc(C(=O)N2CCOCC2)[nH]c1/C=C1\C(=O)Nc2ncnc(Nc3ccc(F)c(Cl)c3)c21`, the IC50 was greater than 20000 nM.

In the case of `Cc1cc(C(=O)NCCN2CCOCC2)[nH]c1/C=C1\C(=O)Nc2ncnc(Nc3ccc4c(ccn4Cc4ccccc4)c3)c21`, the half-inhibitory concentration (IC50) was found to be 3470 nM.

`Cc1cc(C(=O)N2CCN(C)CC2)[nH]c1/C=C1\C(=O)Nc2ncnc(Nc3ccc(F)c(Cl)c3)c21` displayed an IC50 greater than 20000 nM.

`Cc1cc(C(=O)NCCN2CCOCC2)[nH]c1/C=C1\C(=O)Nc2ncnc(Nc3ccc(F)c(Cl)c3)c21` came in with a 50% inhibitory concentration (IC50) greater than 20000 nM.

`Cc1cc(C(=O)N2CC(C)NC(C)C2)[nH]c1/C=C1\C(=O)Nc2ncnc(Nc3ccc(F)c(Cl)c3)c21` (stereo not given) gave an IC50 of 1630 nM.

Turning to `O=C1Nc2ncnc(Nc3ccc(F)c(Cl)c3)c2/C1=C/c1ccc(C(=O)NCCN2CCOCC2)[nH]1`, the 50% inhibitory concentration (IC50) is greater than 20000 nM.

For `Cc1cc(C(=O)N2CCOCC2)[nH]c1/C=C1\C(=O)Nc2ncnc(Nc3ccc4c(cnn4Cc4ccccc4)c3)c21`, inhibition was half-maximal at 2100 nM (IC50).

The molecule `CCN(CC)CCNC(=O)c1cc(C)c(/C=C2\C(=O)Nc3ncnc(Nc4ccc(Cl)cc4F)c32)[nH]1` came in with a half-maximal inhibitory concentration (IC50) of 40 nM.

A further test has as its target Receptor tyrosine-protein kinase erbB-2 (Homo sapiens, UniProt P04626). The experiment in a line: Inhibition of autophosphorylation of human Her (p185erbB) tyrosine kinase expressed in SKOV-3 cells. The format is functional, cell-based, SK-OV-3.
The molecule `CCN1CCN(C(=O)c2cc(C)c(/C=C3\C(=O)Nc4ncnc(Nc5ccc(F)c(Cl)c5)c43)[nH]2)CC1` showed an IC50 of 100 nM.

`CCN(CC)CCNC(=O)c1cc(C)c(/C=C2\C(=O)Nc3ncnc(Nc4ccc(F)c(Cl)c4)c32)[nH]1` returned a 50% inhibitory concentration (IC50) of 200 nM.

Regarding `Cc1cc(C)c(/C=C2\C(=O)Nc3ncnc(Nc4ccc(F)c(Cl)c4)c32)[nH]1`, it took 300 nM to reach half-maximal inhibition (IC50).

In turn, `Cc1cc(C(=O)N2CCOCC2)[nH]c1/C=C1\C(=O)Nc2ncnc(Nc3ccc(F)c(Cl)c3)c21` displayed a 50% inhibitory concentration (IC50) of 400 nM.

As to `Cc1cc(C(=O)NCCN2CCOCC2)[nH]c1/C=C1\C(=O)Nc2ncnc(Nc3ccc4c(ccn4Cc4ccccc4)c3)c21`, the half-inhibitory concentration (IC50) was 40 nM.

On to `Cc1cc(C(=O)N2CCN(C)CC2)[nH]c1/C=C1\C(=O)Nc2ncnc(Nc3ccc(F)c(Cl)c3)c21`, for which half-maximal inhibition (IC50) was put at 200 nM.

With `Cc1cc(C(=O)NCCN2CCOCC2)[nH]c1/C=C1\C(=O)Nc2ncnc(Nc3ccc(F)c(Cl)c3)c21`, the IC50 stood at 100 nM.

As for `Cc1cc(C(=O)N2CC(C)NC(C)C2)[nH]c1/C=C1\C(=O)Nc2ncnc(Nc3ccc(F)c(Cl)c3)c21` (stereo not given), the IC50 came to 500 nM.

Regarding `Cc1cc(C(=O)N2CCOCC2)[nH]c1/C=C1\C(=O)Nc2ncnc(Nc3ccc4c(cnn4Cc4ccccc4)c3)c21`, the midpoint of inhibition, the IC50, lay at 100 nM.

Another test has as its target T1, Epidermal growth factor receptor (Homo sapiens, UniProt P00533). Nature of the test: Inhibition of autophosphorylation of human epidermal growth factor-receptor (EGF-R) expressed in A431 cells. Format: functional, cell-based, A-431.
Molecule `CCN1CCN(C(=O)c2cc(C)c(/C=C3\C(=O)Nc4ncnc(Nc5ccc(F)c(Cl)c5)c43)[nH]2)CC1` showed a 50% inhibitory concentration (IC50) of 200 nM.

Turning to `CCN(CC)CCNC(=O)c1cc(C)c(/C=C2\C(=O)Nc3ncnc(Nc4ccc(F)c(Cl)c4)c32)[nH]1`, the IC50 came to 200 nM.

In turn, `Cc1cc(C)c(/C=C2\C(=O)Nc3ncnc(Nc4ccc(F)c(Cl)c4)c32)[nH]1` displayed an IC50 of 300 nM.

The molecule `Cc1cc(C(=O)N2CCOCC2)[nH]c1/C=C1\C(=O)Nc2ncnc(Nc3ccc(F)c(Cl)c3)c21` gave an IC50 of 40 nM.

`Cc1cc(C(=O)NCCN2CCOCC2)[nH]c1/C=C1\C(=O)Nc2ncnc(Nc3ccc4c(ccn4Cc4ccccc4)c3)c21` had an IC50 of 200 nM.

Take `Cc1cc(C(=O)N2CCN(C)CC2)[nH]c1/C=C1\C(=O)Nc2ncnc(Nc3ccc(F)c(Cl)c3)c21`: 100 nM corresponded to half-maximal inhibition (IC50).

Regarding `Cc1cc(C(=O)N2CCOCC2)[nH]c1/C=C1\C(=O)Nc2ncnc(Nc3ccc4c(cnn4Cc4ccccc4)c3)c21`, the IC50 stood at 100 nM.

Molecule `CCN(CC)CCNC(=O)c1cc(C)c(/C=C2\C(=O)Nc3ncnc(Nc4ccc(Cl)cc4F)c32)[nH]1` registered a concentration for half-maximal inhibition (IC50) of 500 nM.

The next test addresses T1, Epidermal growth factor receptor. The experiment in a line: Inhibitory activity towards tyrosine phosphorylation for the epidermal growth factor-receptor kinase.
In the case of `CCN1CCN(C(=O)c2cc(C)c(/C=C3\C(=O)Nc4ncnc(Nc5ccc(F)c(Cl)c5)c43)[nH]2)CC1`, the midpoint of inhibition, the IC50, lay at 13 nM.

Consider `CCN(CC)CCNC(=O)c1cc(C)c(/C=C2\C(=O)Nc3ncnc(Nc4ccc(F)c(Cl)c4)c32)[nH]1`, for which it took 1.2 nM to reach half-maximal inhibition (IC50).

In turn, `Cc1cc(CCC(=O)O)[nH]c1/C=C1\C(=O)Nc2ncnc(Nc3ccc(F)c(Cl)c3)c21` had a concentration for half-maximal inhibition (IC50) of 4.7 nM.

`Cc1cc(C)c(/C=C2\C(=O)Nc3ncnc(Nc4ccc(F)c(Cl)c4)c32)[nH]1` registered a 50% inhibitory concentration (IC50) of 41 nM.

As to `Cc1cc(C(=O)N2CCOCC2)[nH]c1/C=C1\C(=O)Nc2ncnc(Nc3ccc(F)c(Cl)c3)c21`, the half-inhibitory concentration (IC50) came out at 170 nM.

`Cc1cc(C(=O)NCCN2CCOCC2)[nH]c1/C=C1\C(=O)Nc2ncnc(Nc3ccc4c(ccn4Cc4ccccc4)c3)c21` gave an IC50 of 1.1 nM.

In turn, `Cc1cc(C(=O)N2CCN(C)CC2)[nH]c1/C=C1\C(=O)Nc2ncnc(Nc3ccc(F)c(Cl)c3)c21` showed an IC50 of 2.8 nM.

For `O=C1Nc2ncnc(Nc3ccc(F)c(Cl)c3)c2/C1=C/c1ccc(C(=O)NCCN2CCOCC2)[nH]1`, inhibition was half-maximal at 22 nM (IC50).

Regarding `Cc1cc(C(=O)N2CCOCC2)[nH]c1/C=C1\C(=O)Nc2ncnc(Nc3ccc4c(cnn4Cc4ccccc4)c3)c21`, the 50% inhibitory concentration (IC50) worked out at 1.8 nM.

In turn, `CCN(CC)CCNC(=O)c1cc(C)c(/C=C2\C(=O)Nc3ncnc(Nc4ccc(Cl)cc4F)c32)[nH]1` had an IC50 of 450 nM.

In a further test the target is Platelet-derived growth factor receptor beta (Homo sapiens, UniProt P09619). The experiment in a line: Inhibitory activity towards tyrosine phosphorylation of PDGF-receptor beta kinase.
Chain of Platelet-derived growth factor receptor beta (P09619 whole entry): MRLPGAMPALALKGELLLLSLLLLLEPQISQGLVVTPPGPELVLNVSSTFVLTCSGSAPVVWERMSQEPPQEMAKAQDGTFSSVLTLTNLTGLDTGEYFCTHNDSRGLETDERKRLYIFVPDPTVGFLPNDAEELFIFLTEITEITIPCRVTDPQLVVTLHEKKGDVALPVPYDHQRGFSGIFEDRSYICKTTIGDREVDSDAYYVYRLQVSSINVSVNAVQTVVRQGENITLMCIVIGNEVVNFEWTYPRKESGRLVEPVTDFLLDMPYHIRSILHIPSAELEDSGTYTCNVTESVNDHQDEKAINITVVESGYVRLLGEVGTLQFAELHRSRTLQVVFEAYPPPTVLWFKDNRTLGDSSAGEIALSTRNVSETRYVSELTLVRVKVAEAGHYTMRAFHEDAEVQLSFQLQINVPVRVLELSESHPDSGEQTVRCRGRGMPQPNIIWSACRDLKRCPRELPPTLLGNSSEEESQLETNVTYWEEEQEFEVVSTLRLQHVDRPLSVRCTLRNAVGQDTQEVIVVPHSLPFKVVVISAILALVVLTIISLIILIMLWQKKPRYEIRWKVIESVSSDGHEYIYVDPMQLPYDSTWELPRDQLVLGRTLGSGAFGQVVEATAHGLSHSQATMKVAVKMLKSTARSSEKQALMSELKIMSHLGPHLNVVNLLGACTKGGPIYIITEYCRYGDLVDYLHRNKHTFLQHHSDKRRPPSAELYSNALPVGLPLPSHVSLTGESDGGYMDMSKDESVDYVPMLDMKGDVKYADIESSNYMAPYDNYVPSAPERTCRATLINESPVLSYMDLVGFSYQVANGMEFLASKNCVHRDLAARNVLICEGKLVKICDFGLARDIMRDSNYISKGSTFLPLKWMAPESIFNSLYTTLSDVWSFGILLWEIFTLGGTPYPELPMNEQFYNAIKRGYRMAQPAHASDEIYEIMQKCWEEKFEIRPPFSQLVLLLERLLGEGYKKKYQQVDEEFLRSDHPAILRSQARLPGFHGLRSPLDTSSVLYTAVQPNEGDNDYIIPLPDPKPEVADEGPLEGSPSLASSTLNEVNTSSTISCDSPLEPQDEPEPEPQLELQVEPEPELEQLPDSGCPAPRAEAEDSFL
As to `CCN1CCN(C(=O)c2cc(C)c(/C=C3\C(=O)Nc4ncnc(Nc5ccc(F)c(Cl)c5)c43)[nH]2)CC1`, the IC50 is greater than 20000 nM.

`Cc1cc(CCC(=O)O)[nH]c1/C=C1\C(=O)Nc2ncnc(Nc3ccc(F)c(Cl)c3)c21` registered a concentration for half-maximal inhibition (IC50) greater than 20000 nM.

`Cc1cc(C)c(/C=C2\C(=O)Nc3ncnc(Nc4ccc(F)c(Cl)c4)c32)[nH]1` came in with a half-inhibitory concentration (IC50) greater than 100000 nM.

In turn, `Cc1cc(C(=O)N2CCOCC2)[nH]c1/C=C1\C(=O)Nc2ncnc(Nc3ccc(F)c(Cl)c3)c21` returned an IC50 greater than 20000 nM.

`Cc1cc(C(=O)NCCN2CCOCC2)[nH]c1/C=C1\C(=O)Nc2ncnc(Nc3ccc4c(ccn4Cc4ccccc4)c3)c21`: the IC50 was greater than 100000 nM.

For `Cc1cc(C(=O)N2CCN(C)CC2)[nH]c1/C=C1\C(=O)Nc2ncnc(Nc3ccc(F)c(Cl)c3)c21`, the IC50 was greater than 20000 nM.

Consider `Cc1cc(C(=O)NCCN2CCOCC2)[nH]c1/C=C1\C(=O)Nc2ncnc(Nc3ccc(F)c(Cl)c3)c21`, for which the IC50 is greater than 100000 nM.

`Cc1cc(C(=O)N2CC(C)NC(C)C2)[nH]c1/C=C1\C(=O)Nc2ncnc(Nc3ccc(F)c(Cl)c3)c21` (stereo not given) showed an IC50 greater than 20000 nM.

Consider `O=C1Nc2ncnc(Nc3ccc(F)c(Cl)c3)c2/C1=C/c1ccc(C(=O)NCCN2CCOCC2)[nH]1`, for which the half-maximal inhibitory concentration (IC50) was greater than 100000 nM.

`Cc1cc(C(=O)N2CCOCC2)[nH]c1/C=C1\C(=O)Nc2ncnc(Nc3ccc4c(cnn4Cc4ccccc4)c3)c21` displayed an IC50 greater than 10000 nM.

`CCN(CC)CCNC(=O)c1cc(C)c(/C=C2\C(=O)Nc3ncnc(Nc4ccc(Cl)cc4F)c32)[nH]1`: the IC50 was determined as 5620 nM.
